According to article PMC5503984, “Characterisation of preproendothelin-1 derived peptides identifies Endothelin-Like Domain Peptide as a modulator of Endothelin-1” (Scientific Reports, 2017):

How the values were obtained:
anaesthetised rats = assay: Mean arterial blood pressure in anaesthetised rats; assay type: in vivo, rat
Protocol: Figure 7 Cardiovascular effects of ELDP. […] (B) vasoconstrictor response to ET-1 (1 × 10^−9 M) alone (n = 8) or after pre-incubation with ELDP[162-amide] (10 × 10^−9 M, n = 10); P < 0.002; Student’s t-test. (C) Change in mean arterial blood pressure in anaesthetised rats following ET-1 (0.3 nmol/kg, i.v.) alone (white circles, n = 6) or 15 min after ELDP (3 nmol/kg i.v.) (red circles, n = 6). […] Results are mean ± s.e.m.
All experiments were conducted according to the Animals (Scientific Procedures) Act 1986, UK, and approved by the UK Home Office. Clearance rates of proET-1 peptides and blood pressure effects of ELDP were determined in male Wistar rats (Charles River) anaesthetised with sodium thiopentone (120 mg/kg i.p.). Peptides were administered i.v. via a polyethylene catheter in the left femoral vein. Blood samples (0.5 ml) were collected from a catheter in the left carotid artery into chilled 1.5 ml microcentrifuge tubes containing 50 U/5 µl of heparin. Samples were centrifuged at 12,000 rpm for 2 min at 4 °C. Plasma (50 µl aliquots) samples were stored at −80 °C for subsequent analyses. Blood pressure and heart rate were recorded from the left carotid artery via a polyethylene catheter using Labchart 7.1 (AD Instruments Ltd).

orphan GPCRs = assay: PathHunter Orphan GPCR biosensor panel (ß-arrestin binding, ß-galactosidase complementation); assay type: cell-based; details: 0.1 µM ELDP, 90 min at room temperature, duplicate, 5000 cells per well; chemiluminescence; no response above three standard deviations of control
From the text: An important component of ET-1-induced vasoconstriction is Ca^2+ influx through voltage-gated L-type Ca^2+ channels, [67]. Modulation of ET-1 responses by ELDP therefore likely involves facilitation of Ca^2+ influx. Responses to norepinephrine and serotonin are also augmented by ET-1, and this has been attributed to increased Ca^2+ influx[68]–[70]. To investigate whether ELDP mediates its effects via a distinct G-protein coupled receptor (GPCR), whose ligand pairing had yet to be assigned, ELDP was evaluated against a panel of cell-expressed orphan GPCRs using a detection system based on ß-arrestin binding (Supplementary Figure S3). […]
arrestin and to the GPCR complementing each other to reconstitute ß-galactosidase activity, which is then measured by chemiluminescence ß-galactosidase assay as an index of receptor binding (1,2).
Orphan GPCR screening for ELDP was undertaken by DiscoverRx Corporation, Fremont, CA 94538, USA. […] At the end of the incubation period chemiluminescent substrate was add, and incubated for 60 min before measurement of relative luminescence (RLU) using a PerkinElmer […]
Data Analysis: Percentage activity was calculated for each test well relative to the mean RLU of the corresponding vehicle-treated GPCR. Results are expressed as mean control (%) ± coefficient of […]

How did the “effect on blood pressure, peptide alone” value (anaesthetised rats; 3 nmol/kg i.v., anaesthetised rats) turn out when “ALENLLPTKATDRENRCQCASQKDKKCWNFCQAGKELRAEDIMEKDWNNHKKGKDCSKLGKKCIYQQLVRGRKI (disulfide (positions not given here)) [ELDP]” was run?
Its value is “no effect”.

And the “magnitude of the initial pressor response to ET-1” value (anaesthetised rats; ET-1 0.3 nmol/kg i.v. given 15 min after ELDP 3 nmol/kg i.v., n = 6 per group)?
The value was “without changing”.

What about the “duration of the pressor response to ET-1” value (anaesthetised rats; ET-1 0.3 nmol/kg i.v. given 15 min after ELDP 3 nmol/kg i.v., n = 6 per group, P < 0.02) of the same sequence?
The value was “significantly increased”.

And the “receptor – ligand pairing in orphan GPCR screen” value (orphan GPCRs)?
Its value is “failed to identify an ELDP receptor – ligand pair”.
